Experimental data taken from patent US8399490B2, “Insecticides” (Syngenta Crop Protection LLC, priority 2007, dated 2013).

Experiments:
Format in all cases: in vivo
[1] = test system: Spodoptera littoralis (Egyptian cotton leafworm); assay: Example B1: Activity against Spodoptera littoralis (larvicide, feeding/residual contact activity, preventive), cotton leaf discs; settings: foliar, 72 h, L1 larvae on cotton leaf discs, 3 days after treatment
Source text: Activity Against Spodoptera littoralis (Egyptian Cotton Leafworm)
(Larvicide, Feeding/Residual Contact Activity, Preventive)
The samples are checked for mortality, repellent effect, feeding behaviour, and growth regulation 3 days after treatment. In this test, compounds listed in Table P above show good activity. In particular compounds P.1, P.2, P.3, P.4, P.5, P.6, P.7, P.8, P.9, P.10, P.11, P.12, P.13, P.14, P.15, P.16, P.17, P.18, P.19, P.20, P.21, P.22, P.23, P.24, P.25, P.26, P.27, P.28, P.29, P.30, P.31, P.32, P.33, P.34, P.35, P.36, P.37, P.38, P.39, P.40, P.41, P.42, P.43, P.44, P.46, P.50, P.51, P.52, P.55, P.56, P.57, P.58, P.59, P.60, P61, P.66, P.67, P.68, P.69, P.70, P.71, P.72, P.73, P.74, P.75, P.76, P.77, P.78, P.83, P.84, P.87 and P.88 show an activity of over 80% at a concentration of 400 ppm.

[2] = test system: Heliothis virescens (tobacco budworm); assay: Example B2: Activity against Heliothis virescens (ovo-larvicide, feeding/contact activity, curative), eggs on artificial diet; settings: 96 h, 4 days incubation
Description: Activity Against Heliothis virescens (Tobacco Budworm) (Ovo-Larvicide, Feeding/Contact Activity, Curative) Eggs (0-24 h old) are placed in 24-well microtiter plate on artificial diet and treated with test solutions by pipetting. After an incubation period of 4 days, samples are checked for egg mortality, larval mortality, and growth regulation.

[3] = test system: Plutella xylostella (diamond back moth); assay: Example B3: Plutella xylostella (larvicide, feeding/residual contact activity, preventive), artificial diet MTP; settings: 120 h, L2 larvae on artificial diet, 5 days incubation
Description: (§1) Plutella xylostella (Diamond Back Moth) (Larvicide, Feeding/Residual Contact Activity, Preventive) 24-well microtiter plate (MTP) with artificial diet is treated with test solutions by pipetting. After drying, the MTP's are infested with larvae (L2) (10-15 per well). After an incubation period of 5 days, samples are checked for larval mortality, antifeedant and growth regulation.

[4] = test system: Diabrotica balteata (corn root worm); assay: Example B4: Diabrotica balteata (larvicide, feeding/residual contact activity, preventive), artificial diet MTP; settings: 120 h, L2 larvae on artificial diet, 5 days incubation
Description: as §1, with “Diabrotica balteata (Corn Root Worm)” for “Plutella xylostella (Diamond Back Moth)”, “(6-10” for “(10-15”

Measured: pest or weed control at 400 ppm

Cc1cc2c(c(C(=O)NCC3CC3)c1NC(=O)c1cc(C(F)(F)F)nn1-c1ncccc1Cl)OC(F)(F)O2 [P.46]
> 80%: all assays above

CCNC(=O)c1c(NC(=O)c2cc(OCC(F)(F)F)nn2-c2ncccc2Cl)c(Cl)cc2c1OCO2 [P.58]
> 80%: [1] | [2] | [3]

CCc1cc2c(c(C(=O)NC)c1NC(=O)c1cc(Br)nn1-c1ncccc1Cl)OC(F)(F)O2 [P.33]
> 80%: [1] | [2] | [3]

CNC(=O)c1c(NC(=O)c2cc(Br)nn2-c2ncccc2Cl)c(Br)cc2c1OC(F)(F)O2 [P.41]
> 80%: all assays above

CC(C)NC(=O)c1c(NC(=O)c2cc(C(F)(F)F)nn2-c2ncccc2Cl)c(Cl)cc2c1C(F)CC2 (centres unmarked) [P.49]
> 80%: [2] | [3] | [4]

O=C(NC1(C2CC2)CC1)c1c(NC(=O)c2cc(C(F)(F)F)nn2-c2ncccc2Cl)c(Cl)cc2c1C(O)CC2 (centres unmarked) [P.51]
> 80%: [1] | [2] | [3]

CC(C)NC(=O)c1c(NC(=O)c2cc(Br)nn2-c2ncccc2Cl)c(Cl)cc2c1OCO2 [P.10]
> 80%: all assays above

CC(C)NC(=O)c1c(NC(=O)c2cc(Br)nn2-c2ncccc2Cl)c(Br)cc2c1OC(F)(F)O2 [P.42]
> 80%: all assays above

COc1cc(C(=O)Nc2c(C)cc3c(c2C(=O)NC(C)C)OC(F)(F)O3)n(-c2ncccc2Cl)n1 [P.36]
> 80%: all assays above

CC(C)NC(=O)c1c(NC(=O)c2cc(Br)nn2-c2ncccc2Cl)ccc2c1S(=O)(=O)C(C)C2 (centres unmarked) [P.60]
> 80%: all assays above

O=C(NC1(C2CC2)CC1)c1c(NC(=O)c2cc(Br)nn2-c2ncccc2Cl)c(Cl)cc2c1C(F)CC2 (centres unmarked) [P.55]
> 80%: [1] | [2] | [3]

CCc1cc2c(c(C(=O)NC(C)C)c1NC(=O)c1cc(Br)nn1-c1ncccc1Cl)OC(F)(F)O2 [P.34]
> 80%: [1] | [2] | [3]

O=C(NC1(C2CC2)CC1)c1c(NC(=O)c2cc(C(F)(F)F)nn2-c2ncccc2Cl)c(Cl)cc2c1OC(F)(F)O2 [P.17]
> 80%: all assays above

Cc1cc2c(c(C(=O)NC3(C4CC4)CC3)c1NC(=O)c1cc(C(F)(F)F)nn1-c1ncccc1Cl)OCO2 [P.69]
> 80%: all assays above

CNC(=O)c1c(NC(=O)c2cc(C(F)(F)F)nn2-c2ncccc2Cl)c(C)cc2c1OC(F)(F)O2 [P.43]
> 80%: all assays above

CCNC(=O)c1c(NC(=O)c2cc(C(F)F)nn2-c2ncccc2Cl)c(C)cc2c1OCO2 [P.72]
> 80%: [1] | [2] | [3]

Cc1cc2c(c(C(=O)NC3(C4CC4)CC3)c1NC(=O)c1cc(Br)nn1-c1ncccc1Cl)OC(F)(F)O2 [P.28]
> 80%: all assays above

CC(C)NC(=O)c1c(NC(=O)c2cc(Br)nn2-c2ncccc2Cl)c(Cl)cc2c1C(F)CC2 (centres unmarked) [P.56]
> 80%: [1] | [2] | [3]

CC(C)NC(=O)c1c(NC(=O)c2cc(C(F)(F)F)nn2-c2ncccc2Cl)c(Cl)cc2c1OCO2 [P.1]
> 80%: all assays above

CCNC(=O)c1c(NC(=O)c2cc(C(F)(F)F)nn2-c2ncccc2Cl)c(C)cc2c1OCO2 [P.68]
> 80%: all assays above

CC(C)NC(=O)c1c(NC(=O)c2cc(C(F)(F)F)nn2-c2ncccc2Cl)c(Cl)cc2c1/C(=N/O)CC2 [P.52]
> 80%: [1] | [2] | [3]

Cc1cc2c(c(C(=O)NC3(C4CC4)CC3)c1NC(=O)c1cc(Cl)nn1-c1ncccc1Cl)OC(F)(F)O2 [P.32]
> 80%: all assays above

O=C(NC1(C2CC2)CC1)c1c(NC(=O)c2cc(Cl)nn2-c2ncccc2Cl)c(Cl)cc2c1OCO2 [P.6]
> 80%: all assays above

Cc1cc2c(c(C(=O)NC(C)(C)C)c1NC(=O)c1cc(C(F)F)nn1-c1ncccc1Cl)OCO2 [P.73]
> 80%: all assays above

CC(C)NC(=O)c1c(NC(=O)c2cc(Cl)nn2-c2ncccc2Cl)c(Cl)cc2c1OCO2 [P.3]
> 80%: all assays above

CC1Cc2ccc(NC(=O)c3cc(Br)nn3-c3ncccc3Cl)c(C(=O)NC3CC3)c2S1(=O)=O (centres unmarked) [P.61]
> 80%: [1] | [2] | [3]

CC(C)NC(=O)c1c(NC(=O)c2cc(C(F)(F)F)nn2-c2ncccc2Cl)c(Cl)cc2c1C(O)CC2 (centres unmarked) [P.48]
> 80%: [3]

CNC(=O)c1c(NC(=O)c2cc(Br)nn2-c2ncccc2Cl)ccc2c1S(=O)(=O)C(C)C2 (centres unmarked) [P.59]
> 80%: [1] | [2] | [3]

Cc1cc2c(c(C(=O)NC3(C4CC4)CC3)c1NC(=O)c1cc(Br)nn1-c1ncccc1Cl)OCO2 [P.78]
> 80%: all assays above

CC(C)NC(=O)c1c(NC(=O)c2cc(OCC(F)(F)F)nn2-c2ncccc2Cl)c(Cl)cc2c1OCO2 [P.57]
> 80%: all assays above

CNC(=O)c1c(NC(=O)c2cc(Cl)nn2-c2ncccc2Cl)c(Cl)cc2c1OCO2 [P.9]
> 80%: [1] | [2] | [3]

CC(C)NC(=O)c1c(NC(=O)c2cc(Br)nn2-c2ncccc2Cl)c(Cl)cc2c1C(O)CC2 (centres unmarked) [P.54]
> 80%: [2] | [3] | [4]

CC(C)NC(=O)c1c(NC(=O)c2cc(Br)nn2-c2ncccc2Cl)c(Br)cc2c1S(=O)(=O)C(C)C2 (centres unmarked) [P.87]
> 80%: [1] | [2] | [3]

CC(C)NC(=O)c1c(NC(=O)c2cc(C(F)F)nn2-c2ncccc2Cl)c(Br)cc2c1OC(C)C2 (centres unmarked) [P.84]
> 80%: [1] | [2] | [3]

COc1cc(C(=O)Nc2c(Cl)cc3c(c2C(=O)NC2(C4CC4)CC2)OCO3)n(-c2ncccc2Cl)n1 [P.7]
> 80%: [1] | [2] | [3]

CNC(=O)c1c(NC(=O)c2cc(OC)nn2-c2ncccc2Cl)c(C)cc2c1OC(F)(F)O2 [P.35]
> 80%: [1] | [2] | [3]

O=C1CCc2cc(Cl)c(NC(=O)c3cc(Br)nn3-c3ncccc3Cl)c(C(=O)NC3(C4CC4)CC3)c21 [P.53]
> 80%: [3]
